Reference: patent US12435044B2, “Pyridazinone herbicides and pyridazinone intermediates used to prepare a herbicide” (FMC Corporation, priority 2018, dated 2025)

Tests used:
Assay type in all cases: in vivo
[1] = tested on: blackgrass (Alopecurus myosuroides); experiment: Test A postemergence greenhouse test
Text: (§1) Seeds of plant species selected from barnyardgrass (Echinochloa crus-galli), kochia (Kochia scoparia), ragweed (common ragweed, Ambrosia elatior), ryegrass, Italian (Lolium multiflorum), foxtail, giant (Setaria faberii), foxtail, green (Setaria viridis) and pigweed (Amaranthus retroflexus) were planted into a blend of loam soil and sand and treated preemergence with a directed soil spray using test chemicals formulated in a non-phytotoxic solvent mixture which included a surfactant.
(§2) At the same time, plants selected from these weed species and also wheat (Triticum aestivum), corn (Zea mays), blackgrass (Alopecurus myosuroides) and galium (catchweed bedstraw, Galium aparine) were planted in pots containing the same blend of loam soil and sand and treated with postemergence applications of test chemicals formulated in the same manner. Plants ranged in height from 2 to 10 cm and were in the one- to two-leaf stage for the postemergence treatment. Treated plants and untreated controls were maintained in a greenhouse for approximately 10 d, after which time all treated plants were compared to untreated controls and visually evaluated for injury. Plant response ratings, summarized in Table A, are based on a 0 to 100 scale where 0 is no effect and 100 is complete control. A dash (-) response means no test result.

corn (Zea mays) = experiment: Test A postemergence greenhouse test
Text: as §1, §2

[2] = tested on: galium (catchweed bedstraw, Galium aparine); experiment: Test A postemergence greenhouse test
Text: as §1, §2

[3] = tested on: wheat (Triticum aestivum); experiment: Test A postemergence greenhouse test
Text: as §1, §2

[4] = tested on: barley, spring (Hordeum vulgare); experiment: Test D pre-/postemergence controlled growth environment test
Text: (§3) Seeds of plant species selected from blackgrass (Alopecurus myosuroides), galium (catchweed bedstraw, Galium aparine), kochia (Kochia scoparia), oilseed rape (Brassica napus), barley, spring (Hordeum vulgare), wheat, spring (Triticum aestivum), oat, wild (Avena fatua), barley, winter (Hordeum vulgare) and wheat, winter (Triticum aestivum) were planted into a silt loam soil and treated preemergence with test chemicals formulated in a non-phytotoxic solvent mixture which included a surfactant.
(§4) At the same time, plants selected from these crop and weed species and also bluegrass (annual bluegrass, Poa annua), canarygrass (littleseed canarygrass, Phalaris minor), chickweed (common chickweed, Stellaria media), bromegrass, downy (downy bromegrass, Bromus tectorum), field poppy (Papaver rhoeas), field violet (Viola arvensis), foxtail, green (Setaria viridis), deadnettle (henbit deadnettle, Lamium amplexicaule), ryegrass, Italian (Lolium multiflorum), lambsquarters (Chenopodium album), pigweed (Amaranthus retroflexus), chamomile (scentless chamomile, Matricaria inodora), Russian thistle (Salsola kali), speedwell (bird's-eye speedwell, Veronica persica), buckwheat, wild (Polygonum convolvulus), mustard, wild (Sinapis arvensis), radish, wild (Raphanus raphanistrum), windgrass (Apera spica-venti), geranium, cutleaf (Geranium dissectum) and Canada thistle (Cirsium arvense) were planted in pots containing Redi-Earth® planting medium (Scotts Company, 14111 Scottslawn Road, Marysville, Ohio 43041) comprising spaghnum peat moss, vermiculite, wetting agent and starter nutrients and treated with postemergence applications of the test chemicals formulated in the same manner. Plants ranged in height from 2 to 18 cm (1- to 4-leaf stage). Treated plants and controls were maintained in a controlled growth environment for 14 to 21 d after which time all species were compared to controls and visually evaluated. Plant response ratings, summarized in Table D, are based on a scale of 0 to 100 where 0 is no effect and 100 is complete control. A dash (-) response means no test result.

[5] = tested on: barley, winter (Hordeum vulgare); experiment: as above
Text: as §3, §4

[6] = tested on: blackgrass (Alopecurus myosuroides); experiment: as above
Text: as §3, §4

[7] = tested on: galium (catchweed bedstraw, Galium aparine); experiment: as above
Text: as §3, §4

kochia (Kochia scoparia) = experiment: as above
Text: as §3, §4

oat, wild (Avena fatua) = experiment: as above
Text: as §3, §4

[8] = tested on: oilseed rape (Brassica napus); experiment: as above
Text: as §3, §4

[9] = tested on: wheat, spring (Triticum aestivum); experiment: as above
Text: as §3, §4

[10] = tested on: wheat, winter (Triticum aestivum); experiment: as above
Text: as §3, §4

Cc1ccc2ccc(C)c(-c3c(O)c(Cl)nn(C)c3=O)c2c1 [Cpd. No. 20, 6-chloro-4-(2,7-dimethyl-1-naphthalenyl)-5-hydroxy-2-methyl-3(2H)-pyridazinone]
Plant response rating (0 to 100 scale) ([1]; 31 g ai/ha): 0 | Plant response rating (0 to 100 scale) ([1]; 125 g ai/ha): 60 | Plant response rating (0 to 100 scale) (corn (Zea mays); 31 g ai/ha): 30 | Plant response rating (0 to 100 scale) (corn (Zea mays); 125 g ai/ha): 30 | Plant response rating (0 to 100 scale) ([2]; 31 g ai/ha): 90 | Plant response rating (0 to 100 scale) ([2]; 125 g ai/ha): 100 | Plant response rating (0 to 100 scale) ([3]; 31 g ai/ha): 20 | Plant response rating (0 to 100 scale) ([3]; 125 g ai/ha): 30 | Plant response rating, Barley, Spring ([4]; Postemergence, 16 g ai/ha): 0 | Plant response rating, Barley, Spring ([4]; Postemergence, 31 g ai/ha): 5 | Plant response rating, Barley, Spring ([4]; Postemergence, 62 g ai/ha): 10 | Plant response rating, Barley, Spring ([4]; Postemergence, 125 g ai/ha): 20 | Plant response rating, Barley, Spring ([4]; Preemergence, 16 g ai/ha): 0 | Plant response rating, Barley, Spring ([4]; Preemergence, 31 g ai/ha): 0 | Plant response rating, Barley, Spring ([4]; Preemergence, 62 g ai/ha): 2 | Plant response rating, Barley, Spring ([4]; Preemergence, 125 g ai/ha): 10 | Plant response rating, Barley, Winter ([5]; Postemergence, 16 g ai/ha): 0 | Plant response rating, Barley, Winter ([5]; Postemergence, 31 g ai/ha): 5 | Plant response rating, Barley, Winter ([5]; Postemergence, 62 g ai/ha): 15 | Plant response rating, Barley, Winter ([5]; Postemergence, 125 g ai/ha): 15 | Plant response rating, Barley, Winter ([5]; Preemergence, 16 g ai/ha): 0 | Plant response rating, Barley, Winter ([5]; Preemergence, 31 g ai/ha): 0 | Plant response rating, Barley, Winter ([5]; Preemergence, 62 g ai/ha): 0 | Plant response rating, Barley, Winter ([5]; Preemergence, 125 g ai/ha): 0 | Plant response rating, Blackgrass ([6]; Postemergence, 16 g ai/ha): 15 | Plant response rating, Blackgrass ([6]; Postemergence, 31 g ai/ha): 25 | Plant response rating, Blackgrass ([6]; Postemergence, 62 g ai/ha): 50 | Plant response rating, Blackgrass ([6]; Postemergence, 125 g ai/ha): 60 | Plant response rating, Blackgrass ([6]; Preemergence, 16 g ai/ha): 0 | Plant response rating, Blackgrass ([6]; Preemergence, 31 g ai/ha): 8 | Plant response rating, Blackgrass ([6]; Preemergence, 62 g ai/ha): 20 | Plant response rating, Blackgrass ([6]; Preemergence, 125 g ai/ha): 58 | Plant response rating, Galium ([7]; Postemergence, 16 g ai/ha): 80 | Plant response rating, Galium ([7]; Postemergence, 31 g ai/ha): 90 | Plant response rating, Galium ([7]; Postemergence, 62 g ai/ha): 90 | Plant response rating, Galium ([7]; Postemergence, 125 g ai/ha): 99 | Plant response rating, Galium ([7]; Preemergence, 16 g ai/ha): 78 | Plant response rating, Galium ([7]; Preemergence, 31 g ai/ha): 85 | Plant response rating, Galium ([7]; Preemergence, 62 g ai/ha): 97 | Plant response rating, Galium ([7]; Preemergence, 125 g ai/ha): 100 | Plant response rating, Kochia (kochia (Kochia scoparia); Postemergence, 16 g ai/ha): 70 | Plant response rating, Kochia (kochia (Kochia scoparia); Postemergence, 31 g ai/ha): 70 | Plant response rating, Kochia (kochia (Kochia scoparia); Postemergence, 62 g ai/ha): 70 | Plant response rating, Kochia (kochia (Kochia scoparia); Postemergence, 125 g ai/ha): 80 | Plant response rating, Kochia (kochia (Kochia scoparia); Preemergence, 16 g ai/ha): 7 | Plant response rating, Kochia (kochia (Kochia scoparia); Preemergence, 31 g ai/ha): 25 | Plant response rating, Kochia (kochia (Kochia scoparia); Preemergence, 62 g ai/ha): 35 | Plant response rating, Kochia (kochia (Kochia scoparia); Preemergence, 125 g ai/ha): 80 | Plant response rating, Oat, Wild (oat, wild (Avena fatua); Postemergence, 16 g ai/ha): 25 | Plant response rating, Oat, Wild (oat, wild (Avena fatua); Postemergence, 31 g ai/ha): 65 | Plant response rating, Oat, Wild (oat, wild (Avena fatua); Postemergence, 62 g ai/ha): 80 | Plant response rating, Oat, Wild (oat, wild (Avena fatua); Postemergence, 125 g ai/ha): 90 | Plant response rating, Oat, Wild (oat, wild (Avena fatua); Preemergence, 16 g ai/ha): 22 | Plant response rating, Oat, Wild (oat, wild (Avena fatua); Preemergence, 31 g ai/ha): 33 | Plant response rating, Oat, Wild (oat, wild (Avena fatua); Preemergence, 62 g ai/ha): 73 | Plant response rating, Oat, Wild (oat, wild (Avena fatua); Preemergence, 125 g ai/ha): 83 | Plant response rating, Oilseed Rape ([8]; Postemergence, 16 g ai/ha): 15 | Plant response rating, Oilseed Rape ([8]; Postemergence, 31 g ai/ha): 15 | Plant response rating, Oilseed Rape ([8]; Postemergence, 62 g ai/ha): 20 | Plant response rating, Oilseed Rape ([8]; Postemergence, 125 g ai/ha): 25 | Plant response rating, Oilseed Rape ([8]; Preemergence, 16 g ai/ha): 0 | Plant response rating, Oilseed Rape ([8]; Preemergence, 31 g ai/ha): 0 | Plant response rating, Oilseed Rape ([8]; Preemergence, 62 g ai/ha): 0 | Plant response rating, Oilseed Rape ([8]; Preemergence, 125 g ai/ha): 0 | Plant response rating, Wheat, Spring ([9]; Postemergence, 16 g ai/ha): 15 | Plant response rating, Wheat, Spring ([9]; Postemergence, 31 g ai/ha): 25 | Plant response rating, Wheat, Spring ([9]; Postemergence, 62 g ai/ha): 35 | Plant response rating, Wheat, Spring ([9]; Postemergence, 125 g ai/ha): 55 | Plant response rating, Wheat, Spring ([9]; Preemergence, 16 g ai/ha): 0 | Plant response rating, Wheat, Spring ([9]; Preemergence, 31 g ai/ha): 12 | Plant response rating, Wheat, Spring ([9]; Preemergence, 62 g ai/ha): 28 | Plant response rating, Wheat, Spring ([9]; Preemergence, 125 g ai/ha): 62 | Plant response rating, Wheat, Winter ([10]; Postemergence, 16 g ai/ha): 10 | Plant response rating, Wheat, Winter ([10]; Postemergence, 31 g ai/ha): 15 | Plant response rating, Wheat, Winter ([10]; Postemergence, 62 g ai/ha): 20 | Plant response rating, Wheat, Winter ([10]; Postemergence, 125 g ai/ha): 30 | Plant response rating, Wheat, Winter ([10]; Preemergence, 16 g ai/ha): 0 | Plant response rating, Wheat, Winter ([10]; Preemergence, 31 g ai/ha): 0 | Plant response rating, Wheat, Winter ([10]; Preemergence, 62 g ai/ha): 5 | Plant response rating, Wheat, Winter ([10]; Preemergence, 125 g ai/ha): 17

Cc1ccc2ccc(F)cc2c1-c1c(O)c(Cl)nn(C)c1=O [Cpd. No. 21]
Plant response rating (0 to 100 scale) ([1]; 31 g ai/ha): 50 | Plant response rating (0 to 100 scale) ([1]; 125 g ai/ha): 70 | Plant response rating (0 to 100 scale) (corn (Zea mays); 31 g ai/ha): 10 | Plant response rating (0 to 100 scale) (corn (Zea mays); 125 g ai/ha): 20 | Plant response rating (0 to 100 scale) ([2]; 31 g ai/ha): 100 | Plant response rating (0 to 100 scale) ([2]; 125 g ai/ha): 100 | Plant response rating (0 to 100 scale) ([3]; 31 g ai/ha): 50 | Plant response rating (0 to 100 scale) ([3]; 125 g ai/ha): 80

Cc1ccc2ccc(Cl)cc2c1-c1c(O)c(Cl)nn(C)c1=O [Cpd. No. 22]
Plant response rating (0 to 100 scale) ([1]; 31 g ai/ha): 70 | Plant response rating (0 to 100 scale) ([1]; 125 g ai/ha): 100 | Plant response rating (0 to 100 scale) (corn (Zea mays); 31 g ai/ha): 0 | Plant response rating (0 to 100 scale) (corn (Zea mays); 125 g ai/ha): 10 | Plant response rating (0 to 100 scale) ([2]; 31 g ai/ha): 100 | Plant response rating (0 to 100 scale) ([2]; 125 g ai/ha): 100 | Plant response rating (0 to 100 scale) ([3]; 31 g ai/ha): 100 | Plant response rating (0 to 100 scale) ([3]; 125 g ai/ha): 100 | Plant response rating, Barley, Spring ([4]; Postemergence, 31 g ai/ha): 67 | Plant response rating, Barley, Spring ([4]; Postemergence, 62 g ai/ha): 85 | Plant response rating, Barley, Winter ([5]; Postemergence, 31 g ai/ha): 47 | Plant response rating, Barley, Winter ([5]; Postemergence, 62 g ai/ha): 73 | Plant response rating, Blackgrass ([6]; Postemergence, 31 g ai/ha): 75 | Plant response rating, Blackgrass ([6]; Postemergence, 62 g ai/ha): 82 | Plant response rating, Galium ([7]; Postemergence, 31 g ai/ha): 92 | Plant response rating, Galium ([7]; Postemergence, 62 g ai/ha): 96 | Plant response rating, Kochia (kochia (Kochia scoparia); Postemergence, 31 g ai/ha): 37 | Plant response rating, Kochia (kochia (Kochia scoparia); Postemergence, 62 g ai/ha): 58 | Plant response rating, Oat, Wild (oat, wild (Avena fatua); Postemergence, 31 g ai/ha): 93 | Plant response rating, Oat, Wild (oat, wild (Avena fatua); Postemergence, 62 g ai/ha): 98 | Plant response rating, Oilseed Rape ([8]; Postemergence, 31 g ai/ha): 73 | Plant response rating, Oilseed Rape ([8]; Postemergence, 62 g ai/ha): 90 | Plant response rating, Wheat, Spring ([9]; Postemergence, 31 g ai/ha): 90 | Plant response rating, Wheat, Spring ([9]; Postemergence, 62 g ai/ha): 96 | Plant response rating, Wheat, Winter ([10]; Postemergence, 31 g ai/ha): 85 | Plant response rating, Wheat, Winter ([10]; Postemergence, 62 g ai/ha): 95
